Test results published in US20230355568A1, “THERAPEUTIC AGENT FOR MALIGNANT MESOTHELIOMA AND METHOD FOR SELECTING PATIENT HAVING MALIGNANT MESOTHELIOMA” (National University Corporation Tokai National Higher …, priority 2020, published 2023).
Where a name gives a salt, the structure may show the parent alone. Bridge positions count the residues as written; N and C are the ends. Square brackets hold non-standard residues; d marks the D form. Peptide text beside a SMILES is read from it. Orn = NCCC[C@H](N)C(=O)O; Mpa = O=C(O)CCS

Assays:
[1] = tested on: malignant mesothelioma cell line NCI-H2373; test: WST-1 assay, combined use of Cligosiban and cisplatin, NCI-H2373; format: cell-based; details: Cligosiban 45 μM and/or cisplatin 6 μM, culture five days (FIG. 8)
Method: (§1) The procedure is illustrated below. • (1) Cells of malignant mesothelioma cell line NCI-H2373 were seeded on a dish and cultured for one day. • (2) Cligosiban 45 μM and cisplatin (product number 033-20091, purchased from FUJIFILM Wako Pure Chemical Corporation) 6 μM were administered to the dish. • (3) After culture for five days, evaluation with WST-1 assay was performed.
The same procedure as that in Example 21 was applied except that only Cligosiban 45 μM was administered.
The same procedure as that in Example 21 was applied except that neither Cligosiban 45 μM nor cisplatin 6 μM was administered.
The same procedure as that in Example 21 was applied except that only cisplatin 6 μM was administered.

[2] = tested on: malignant mesothelioma cell line NCI-H2052; test: WST-1 assay, combined use of Cligosiban and cisplatin, NCI-H2052; format: cell-based; details: Cligosiban 15 μM and/or cisplatin 0.8 μM, culture five days (FIG. 8)
Method: as §1
The same procedure as that in Example 21 was applied except that the malignant mesothelioma cell line was replaced with NCI-H2052 and that Cligosiban 15 μM and cisplatin 0.8 μM were administered to the dish.
The same procedure as that in Example 22 was applied except that the malignant mesothelioma cell line was replaced with NCI-H2052 and that Cligosiban 15 μM was administered.
The same procedure as that in Example 23 was applied except that neither Cligosiban 15 μM nor cisplatin 0.8 μM was administered.
The same procedure as that in Example 23 was applied except that only cisplatin 0.8 μM was administered.

[3] = tested on: malignant mesothelioma cell line NCI-H2052; test: WST-1 assay with oxytocin receptor inhibitor, NCI-H2052; format: cell-based; details: culture five days, Cligosiban 0-25 μM, other inhibitors 0-80 μM (FIG. 3, FIG. 4)
Method: (§2) The procedure is illustrated below. • (1) Cells of malignant mesothelioma cell line NCI-H2052 were seeded on a dish and cultured for one day. • (2) Cligosiban was administered to the dish at a concentration of 0, 5, 10, 15, 20, or 25 μM. • (3) After culture for five days, evaluation with WST-1 assay was performed. The WST-1 assay is an assay method to administer cell proliferation test agent WST-1 (product number: 11644807001, purchased from Roche) and evaluate cell proliferation by a colorimetric method.
The same procedure as that in Example 3 was applied except that the oxytocin receptor inhibitor was replaced with OT-R antagonist 1 (purchased from MedChemExpress), which was administered to the dish at a concentration of 0, 20, 40, 60, or 80 μM.
The same procedure as that in Example 5 was applied except that the oxytocin receptor inhibitor was replaced with L368,899 hydrochloride (purchased from MedChemExpress).
The same procedure as that in Example 5 was applied except that the oxytocin receptor inhibitor was replaced with Atosiban (purchased from MedChemExpress).

[4] = tested on: malignant mesothelioma cell line NCI-2373; test: WST-1 assay with oxytocin receptor inhibitor, NCI-2373; format: cell-based; details: culture five days, Cligosiban 0-60 μM, other inhibitors 0-80 μM (FIG. 3, FIG. 4)
Method: as §2
The same procedure as that in Example 3 was applied except that the malignant mesothelioma cell line was replaced with NCI-2373 (purchased from ATCC) and Cligosiban was administered to the dish at a concentration of 0, 20, 30, 40, 50, or 60 μM.
The same procedure as that in Example 4 was applied except that the oxytocin receptor inhibitor was replaced with OT-R antagonist 1, which was administered to the dish at a concentration of 0, 20, 40, 60, or 80 μM.
The same procedure as that in Example 6 was applied except that the oxytocin receptor inhibitor was replaced with L368,899 hydrochloride.
The same procedure as that in Example 6 was applied except that the oxytocin receptor inhibitor was replaced with Atosiban.

[5] = tested on: malignant mesothelioma cell line NCI-H2052; test: Xenograft model: cisplatin and pemetrexed, Cligosiban, and combined use; format: in vivo; details: NCI-H2052 subcutaneous in nude mice; Cligosiban oral 60 mg/kg every other day, 10 doses from day 7; cisplatin 2 mg/kg and pemetrexed 25 mg/kg once tail vein day 7; measured two days after tenth dose (FIG. 9)
Method: The procedure is illustrated below. • (1) 5.0×10^6 cells of malignant mesothelioma cell line NCI-H2052 (purchased from ATCC) were administered to the subcutaneous left buttock of nude mice (BALB/c nude (nu/nu) female, 6 to 8 weeks old: purchased from Charles River Japan). • (2) After 7 days from the subcutaneous administration, oral administration of Cligosiban (purchased from MedChemExpress) was started, and the oral administration was applied at each dose of 60 mg/kg every other day for a total of 10 doses. • (3) After 7 days from the subcutaneous administration, cisplatin (product number 033-20091, purchased from FUJIFILM Wako Pure Chemical Corporation) 2 mg/kg and pemetrexed disodium heptahydrate (product number 161-26263, purchased from FUJIFILM Wako Pure Chemical Corporation) 25 mg/kg were once injected into a tail vein. • (4) After two days from the tenth oral administration of Cligosiban, the nude mice were dissected, and the subcutaneous tumor weights were measured.
The same procedure as that in Example 25 was applied except that neither cisplatin nor pemetrexed was administered.
The same procedure as that in Example 25 was applied except that neither Cligosiban nor cisplatin and pemetrexed was administered.
The same procedure as that in Example 25 was applied except that Cligosiban was not administered.

[6] = tested on: malignant mesothelioma cell line NCI-H2052; test: Proliferation suppression of malignant mesothelioma cells with Cligosiban using Xenograft model; format: in vivo; details: NCI-H2052 subcutaneous in nude mice, Cligosiban oral 60 mg/kg every other day, 10 doses, vs no Cligosiban (FIG. 1)
Method: The procedure is illustrated below. • (1) 5.0×10^6 cells of malignant mesothelioma cell line NCI-H2052 (purchased from ATCC) were administered to the subcutaneous left buttock of nude mice (BALB/c nude (nu/nu) female, 6 to 8 weeks old: purchased from Charles River Japan). • (2) After 3 days from the subcutaneous administration, oral administration of Cligosiban (purchased from MedChemExpress) was started, and the oral administration was applied at each dose of 60 mg/kg every other day for a total of 10 doses. • (3) After one week from the tenth oral administration, the nude mice were dissected, and the subcutaneous tumor weights were measured.
The same procedure as that in Example 1 was applied except that no Cligosiban was administered.

N.N.[Cl][Pt][Cl] [cisplatin]
proliferation of malignant mesothelioma cells (WST-1 assay) [1]: more suppresses proliferation of malignant mesothelioma cells than Comparative example 11 and Comparative example 13
proliferation of malignant mesothelioma cells (WST-1 assay) [2]: more suppresses proliferation of malignant mesothelioma cells than Comparative example 11 and Comparative example 13

Cc1ccccc1N1CCN(S(=O)(=O)C[C@@]23CC[C@H](CC2NC(=O)[C@H](N)CCS(C)(=O)=O)C3(C)C)CC1 (stereo partly drawn) [L368,899 hydrochloride]
proliferation of malignant mesothelioma cells (WST-1 assay) [3]: proliferation of malignant mesothelioma cells was suppressed
proliferation of malignant mesothelioma cells (WST-1 assay) [4]: proliferation of malignant mesothelioma cells was suppressed

CCOc1ccc(C[C@H]2NC(=O)CCSSC[C@@H](C(=O)N3CCC[C@H]3C(=O)N[C@@H](CCCN)C(=O)NCC(N)=O)NC(=O)[C@H](CC(N)=O)NC(=O)[C@H]([C@@H](C)O)NC(=O)[C@H]([C@@H](C)CC)NC2=O)cc1 [Atosiban] ([Mpa][dY](Et)ITNCP[Orn]G-NH2; disulfide 1-6)
proliferation of malignant mesothelioma cells (WST-1 assay) [3]: proliferation of malignant mesothelioma cells was suppressed
proliferation of malignant mesothelioma cells (WST-1 assay) [4]: proliferation of malignant mesothelioma cells was suppressed

COCc1nnc(N2CC(Oc3ccc(F)cc3Cl)C2)n1-c1ccc(OC)nc1 [Cligosiban]
subcutaneous tumor weight [5]: smaller than the subcutaneous tumor weight of Comparative example 16
proliferation of malignant mesothelioma cells (WST-1 assay) [3]: more suppresses proliferation of malignant mesothelioma cells
proliferation of malignant mesothelioma cells (WST-1 assay) [1]: more suppresses proliferation of malignant mesothelioma cells than Comparative example 11 and Comparative example 13
proliferation of malignant mesothelioma cells (WST-1 assay) [4]: more suppresses proliferation of malignant mesothelioma cells
proliferation of malignant mesothelioma cells (WST-1 assay) [2]: more suppresses proliferation of malignant mesothelioma cells than Comparative example 11 and Comparative example 13
subcutaneous tumor weight ([6]; from day 3, measured one week after tenth dose): smaller than that of Comparative example 1
growth of the subcutaneous tumor [6]: suppresses growth of the subcutaneous tumor statistically, significantly compared to Comparative example 1

CO/N=C1/C[C@@H](C(=O)NC[C@@H](O)c2ccccc2)N(C(=O)c2ccc(-c3ccccc3C)cc2)C1 [OT-R antagonist 1]
proliferation of malignant mesothelioma cells (WST-1 assay) [3]: proliferation of malignant mesothelioma cells was suppressed
proliferation of malignant mesothelioma cells (WST-1 assay) [4]: proliferation of malignant mesothelioma cells was suppressed
